Data on 23 compounds can be found in patent US8614242B2, “1-(heterocyclic carbonyl)-2-substituted pyrrolidines” (Bayer Intellectual Property GmbH, priority 2010, dated 2013).

Structures are written as SMILES.

For one data set, the system named is Sphaerotheca fuliginea. Description: In vivo preventive test on Sphaerotheca fuliginea (cucumber). Conditions: 500 ppm of active ingredient, evaluated 7 days after inoculation.
The subject of a further data set is Alternaria solani. Kind of data set: In vivo preventive test on Alternaria solani (tomato). Conditions: evaluated 7 days after inoculation. The method, then:
The plants remain for one day in an incubation cabinet at approximately 22° C. and a relative atmospheric humidity of 100%. Then the plants are placed in an incubation cabinet at approximately 20° C. and a relative atmospheric humidity of 96%.

The subject of another data set is Pyrenophora teres. Kind of data set: In vivo preventive test on Pyrenophora teres (barley). Conditions: 500 ppm of active ingredient, evaluated 7-9 days after inoculation. The method, then: The plants remain for 48 hours in an incubation cabinet at 22° C. and a relative atmospheric humidity of 100%.
Data set [1] is described as follows: logP by HPLC on reversed-phase column (EEC Directive 79/831 Annex V.A8). It is filed as physicochemical. Conditions: HPLC on reversed-phase column (C 18), 40° C., 0.1% aqueous formic acid and acetonitrile, linear gradient 10% to 90% acetonitrile. The procedure: In table 1, the logP values were determined in accordance with EEC Directive 79/831 Annex V.A8 by HPLC (High Performance Liquid Chromatography) on a reversed-phase column (C 18), using the method described below: Temperature: 40° C.; Mobile phases: 0.1% aqueous formic acid and acetonitrile; linear gradient from 10% acetonitrile to 90% acetonitrile. Calibration was carried out using unbranched alkan-2-ones (comprising 3 to 16 carbon atoms) with known logP values (determination of the logP values by the retention times using linear interpolation between two successive alkanones). lambda-max-values were determined using UV-spectra from 200 nm to 400 nm and the peak values of the chromatographic signals.

A further data set relates to Leptosphaeria nodorum. Description: In vivo preventive test on Leptosphaeria nodorum (wheat). Conditions: evaluated 8 days after inoculation. An excerpt: After the spray coating has been dried, the plants are sprayed with a spore suspension of Leptosphaeria nodorum.
The next data set concerns Septoria tritici. Kind of data set: In vivo preventive test on Septoria tritici (wheat). Conditions: 500 ppm of active ingredient, evaluated 21 days after inoculation. An excerpt: After the spray coating has been dried, the plants are sprayed with a spore suspension of Septoria tritici.
The subject of data set [2] is Blumeria graminis f.sp. hordei. Kind of data set: In vivo preventive test on Blumeria graminis (barley). Conditions: 500 ppm of active ingredient, evaluated 7 days after inoculation. From the text: After the spray coating has been dried, the plants are dusted with spores of Blumeria graminis f.sp. hordei.
The test system of data set [3] is Fusarium nivale (var. majus). Kind of data set: In vivo preventive test on Fusarium nivale (wheat). Conditions: 500 ppm of active ingredient, evaluated 5 days after inoculation. An excerpt:
After the spray coating has been dried, the plants are slightly injured by using a sandblast and afterwards they are sprayed with a conidia suspension of Fusarium nivale (var. majus).

Another data set relates to Venturia inaequalis. Kind of data set: In vivo preventive test on Venturia inaequalis (apple scab). Conditions: 100 ppm of active ingredient, evaluated 10 days after inoculation. The method, then: After the spray coating has dried on, the plants are inoculated with an aqueous conidia suspension of the causal agent of apple scab (Venturia inaequalis) and then remain for 1 day in an incubation cabinet at approximately 20° C. and a relative atmospheric humidity of 100%.

A further data set deals with Puccinia triticina. Kind of data set: In vivo preventive test on Puccinia triticina (wheat). Conditions: 500 ppm of active ingredient, evaluated 8 days after inoculation. The procedure: In Vivo Preventive Test on Puccinia Triticina (Wheat)
Solvent: 49 parts by weight of N,N-dimethylacetamide
Emulsifier: 1 part by weight of alkylaryl polyglycol ether
After the spray coating has been dried, the plants are sprayed with a spore suspension of Puccinia triticina.
The test is evaluated 8 days after the inoculation.

Where [4] appears, read: 100 ppm of active ingredient, listed as 1.110.
Setting [5] is: 100 ppm of active ingredient, listed as 1.110 from WO-2009/153191.

Regarding `Cn1nc(C(F)F)c(C(=S)N2CCCC2Cc2ccccc2Cl)c1F` (racemic) [Example 61], the Efficacy worked out at 95% with Sphaerotheca fuliginea, 100% with Alternaria solani (500 ppm of active ingredient) and 100% in the data set on Pyrenophora teres. In [1], the logP (in general, a log measure of how a compound divides between an organic and an aqueous phase) was 3.83.
With `Cn1nc(C(F)F)c(C(=O)N2CCCC2c2ccc(Cl)cc2Cl)c1F` (stereo not drawn) [Example 22], the Efficacy in the data set on Sphaerotheca fuliginea came to 91%; in the data set on Alternaria solani (500 ppm of active ingredient) it was 100%; in the data set on Pyrenophora teres it was 95%. Further, the logP in data set [1] came out at 3.44.
For `Cn1nc(C(F)F)c(C(=O)N2CCCC2c2cc(C(F)(F)F)cc(C(F)(F)F)c2)c1F` (stereo not drawn) [Example 39], in that order: 100%, 95%, 100% and 3.63.
For `Cn1nc(C(F)F)c(C(=O)N2CCCC2c2ccccc2Cl)c1F` (stereo not drawn) [Example 6], in that order: 90%, 100%, 100% and 2.90.
For `Cn1nc(C(F)F)c(C(=S)N2CCCC2Cc2c(Cl)cccc2Cl)c1F` (racemic) [Example 77], in that order: 95%, 100%, 100% and 4.06.
Take `Cn1nc(C(F)F)c(C(=O)N2CCCC2c2cc(Cl)cc(Cl)c2)c1F` (stereo not drawn) [Example 28]: the values for the Efficacy with Sphaerotheca fuliginea, with Alternaria solani (500 ppm of active ingredient) and with Pyrenophora teres were 100%, 95% and 100%, respectively. Further, the logP in data set [1] is 3.35.
`Cn1cc(C(=O)N2CCC[C@H]2COc2c(Cl)cc(Cl)cc2Cl)c(C(F)F)n1` [Example 1.006 from WO-2009/153191, [3-(difluoromethyl)-1-methyl-1H-pyrazol-4-yl]{(S)-2-[(2,4,6-trichlorophenoxy)methyl]pyrrolidin-1-yl}methanone, reference compound]: the Efficacy entry with Leptosphaeria nodorum (250 ppm of active ingredient, listed as 1.006) is given as “less than 50%”; with Leptosphaeria nodorum (250 ppm of active ingredient, listed as 1.006 from WO-2009/153191) it was 43%; with Leptosphaeria nodorum (500 ppm of active ingredient, listed as 1.006), “at least 70%”; in the data set on Leptosphaeria nodorum (500 ppm of active ingredient, listed as 1.006 from WO-2009/153191) it was 71%.
In the case of `Cn1nc(C(F)F)c(C(=O)N2CCCC2Cc2ccc(Cl)cc2)c1F` (racemic) [Example 65], the Efficacy is recorded as 100% with Septoria tritici; 100% in [2]; 95% in the data set with Sphaerotheca fuliginea; 100% in data set [3]; 100% in the data set on Venturia inaequalis; 100% in the data set with Leptosphaeria nodorum (500 ppm of active ingredient). The Efficacy is recorded as 94% with Alternaria solani (500 ppm of active ingredient) and 100% in the data set on Pyrenophora teres. This compound also displayed a logP in data set [1] of 3.29.
With `Cn1nc(C(F)F)c(C(=O)N2CCCC2c2cc(Cl)cc(Cl)c2)c1Cl` (stereo not drawn) [Example 27], the Efficacy in the data set on Sphaerotheca fuliginea was 70%; in the data set on Alternaria solani (500 ppm of active ingredient), 95%; in the data set with Pyrenophora teres, 95%. This compound had a logP in data set [1] of 3.50.
On to `Cn1nc(C(F)F)c(C(=O)N2CCCC2Cc2c(Cl)cccc2Cl)c1F` (racemic) [Example 76], for which the Efficacy in the data set with Septoria tritici was 83%; in data set [2] it was 100%; with Sphaerotheca fuliginea, 95%; in data set [3], 100%; with Pyrenophora teres it was 100%. For the same compound, the logP in data set [1] was determined as 3.31.
On to `Cn1nc(C(F)F)c(C(=O)N2CCCC2Cc2cccc(Cl)c2Cl)c1F` (racemic) [Example 69], for which the Efficacy worked out at 88% in the data set on Sphaerotheca fuliginea, 100% in the data set on Alternaria solani (500 ppm of active ingredient) and 100% with Pyrenophora teres. Further, in [1], the logP worked out at 3.64.
For `Cn1nc(C(F)F)c(C(=O)N2CCCC2c2cc(F)cc(F)c2)c1F` (stereo not drawn) [Example 10], the Efficacy with Sphaerotheca fuliginea is on record as 85%; with Alternaria solani (500 ppm of active ingredient), 95%; with Pyrenophora teres it was 100%. This compound also returned a logP in [1] of 2.70.
`Cn1nc(C(F)F)c(C(=S)N2CCCC2c2cccc(C(F)(F)F)c2)c1F` (stereo not drawn) [Example 18]: the Efficacy is listed as 100% with Sphaerotheca fuliginea, 90% in the data set on Alternaria solani (500 ppm of active ingredient) and 100% in the data set with Pyrenophora teres. Also, in [1], the logP was 3.59.
As to `Cn1nc(C(F)F)c(C(=O)N2CCCC2Cc2ccc(Br)cc2)c1F` (racemic) [Example 80], the figures for the Efficacy in the data set on Sphaerotheca fuliginea, with Alternaria solani (500 ppm of active ingredient) and in the data set on Pyrenophora teres were 89%, 100% and 100%, respectively. In addition, in data set [1], the logP is reported as 3.39.
On to `Cn1nc(C(F)F)c(C(=O)N2CCCC2Cc2ccc(F)cc2)c1F` (stereo not drawn) [Example 59], for which the Efficacy in the data set with Septoria tritici turned out to be 90%; in [2], 100%; in the data set on Sphaerotheca fuliginea it was 93%; in data set [3], 100%; with Leptosphaeria nodorum (500 ppm of active ingredient), 93%; in the data set on Pyrenophora teres it was 100%. In the data set on Puccinia triticina, this compound showed an Efficacy of 88%. For the same compound, the logP in data set [1] was 2.90.
For the compound `Cn1nc(C(F)F)c(C(=O)N2CCCC2c2cccc(Br)c2)c1F` (stereo not drawn) [Example 34], the Efficacy in the data set on Sphaerotheca fuliginea stood at 95%; with Alternaria solani (500 ppm of active ingredient), 95%; with Pyrenophora teres, 100%. Further, in data set [1], the logP is 2.92.
For the compound `Cn1nc(C(F)F)c(C(=O)N2CCCC2c2ccc(Cl)c(Cl)c2)c1F` (stereo not drawn) [Example 26], the Efficacy with Sphaerotheca fuliginea stood at 95%; in the data set with Alternaria solani (500 ppm of active ingredient), 95%; with Pyrenophora teres, 100%. In data set [1], this compound had a logP of 3.23.
With `Cn1cc(C(=O)N2CCCC2Cc2c(Cl)cccc2Cl)c(C(F)F)n1` (stereo not drawn) [Example 1.110 from WO-2009/153191, [2-(2,6-dichlorobenzyl)pyrrolidin-1-yl][3-(difluoromethyl)-1-methyl-1H-pyrazol-4-yl]methanone, reference compound], the Efficacy result in the data set with Leptosphaeria nodorum (setting [4]) is recorded as “no protection”; with Leptosphaeria nodorum (setting [5]), 0%; in the data set with Leptosphaeria nodorum (500 ppm of active ingredient) it was 44%; in the data set with Alternaria solani (setting [4]), “less than 30%”; in the data set with Alternaria solani (setting [5]), 30%; in the data set with Alternaria solani (500 ppm of active ingredient), 95%.
In the case of `Cn1nc(C(F)F)c(C(=O)N2CCCC2c2ccc(C(F)(F)F)cc2)c1F` (stereo not drawn) [Example 21], the figures for the Efficacy with Sphaerotheca fuliginea, in the data set with Alternaria solani (500 ppm of active ingredient) and in the data set with Pyrenophora teres were 81%, 90% and 95%, respectively. Further, the logP in data set [1] turned out to be 3.13.
For `Cn1nc(C(F)F)c(C(=O)N2CCCC2c2cccc(C(F)(F)F)c2)c1Cl` (stereo not drawn) [Example 16], in that order: 86%, 100%, 100% and 3.21.
Regarding `Cn1nc(C(F)F)c(C(=O)N2CCCC2c2ccccc2Br)c1F` (stereo not drawn) [Example 32], the values for the Efficacy with Sphaerotheca fuliginea, in the data set with Alternaria solani (500 ppm of active ingredient) and in the data set on Pyrenophora teres were 95%, 95% and 100%, respectively. In [1], this compound showed a logP of 2.98.
Turning to `Cc1ccccc1C1CCCN1C(=O)c1c(C(F)F)nn(C)c1F` (stereo not drawn) [Example 2], the Efficacy with Sphaerotheca fuliginea was 95%; in the data set with Alternaria solani (500 ppm of active ingredient), 90%; with Pyrenophora teres, 100%. The lipophilicity (logP) in [1] was 2.75.
Take `Cn1nc(C(F)F)c(C(=S)N2CCCC2c2ccc(Cl)cc2Cl)c1F` (stereo not drawn) [Example 24]: the results for the Efficacy in the data set on Sphaerotheca fuliginea, in the data set on Alternaria solani (500 ppm of active ingredient) and in the data set on Pyrenophora teres were 95%, 90% and 100%, respectively. The compound also displayed a logP in data set [1] of 4.09.
